Reference: PubChem BioAssay (NCI)
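Each compound was tested at five concentrations against cells in 96-well plates for 48 hours. GI50 marks 50% less growth. TGI denotes the concentration required for complete inhibition of growth.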

Columns and labels:
Assay in all cases: NCI tumour cell line growth inhibition, 48 h
786-0 renal = tested on: 786-0 renal
A498 renal = tested on: A498 renal
A549 NSCLC = tested on: A549 NSCLC
ACHN renal = tested on: ACHN renal
BT-549 breast = tested on: BT-549 breast
CAKI-1 renal = tested on: CAKI-1 renal
CCRF-CEM leukemia = tested on: CCRF-CEM leukemia
DU-145 prostate = tested on: DU-145 prostate
EKVX NSCLC = tested on: EKVX NSCLC
HCC-2998 colon = tested on: HCC-2998 colon
HL-60(TB) leukemia = tested on: HL-60(TB) leukemia
HOP-62 NSCLC = tested on: HOP-62 NSCLC
HOP-92 NSCLC = tested on: HOP-92 NSCLC
HS 578T breast = tested on: HS 578T breast
HT29 colon = tested on: HT29 colon
IGROV1 ovarian = tested on: IGROV1 ovarian
KM12 colon = tested on: KM12 colon
LOX IMVI melanoma = tested on: LOX IMVI melanoma
M14 melanoma = tested on: M14 melanoma
MALME-3M melanoma = tested on: MALME-3M melanoma
MCF7 breast = tested on: MCF7 breast
MDA-MB-231 breast = tested on: MDA-MB-231 breast
MDA-MB-435 = tested on: MDA-MB-435
MOLT-4 leukemia = tested on: MOLT-4 leukemia
NCI-H226 lung = tested on: NCI-H226 lung
NCI-H23 lung = tested on: NCI-H23 lung
NCI-H460 lung = tested on: NCI-H460 lung
NCI/ADR-RES ovarian = tested on: NCI/ADR-RES ovarian
OVCAR-4 ovarian = tested on: OVCAR-4 ovarian
OVCAR-5 ovarian = tested on: OVCAR-5 ovarian
PC-3 prostate = tested on: PC-3 prostate
RPMI-8226 leukemia = tested on: RPMI-8226 leukemia
RXF 393 renal = tested on: RXF 393 renal
SF-268 CNS = tested on: SF-268 CNS
SF-295 CNS = tested on: SF-295 CNS
SF-539 CNS = tested on: SF-539 CNS
SK-MEL-28 melanoma = tested on: SK-MEL-28 melanoma
SK-MEL-5 melanoma = tested on: SK-MEL-5 melanoma
SK-OV-3 ovarian = tested on: SK-OV-3 ovarian
SN12C renal = tested on: SN12C renal
SNB-19 CNS = tested on: SNB-19 CNS
SNB-75 CNS = tested on: SNB-75 CNS
SR leukemia = tested on: SR leukemia
SW-620 colon = tested on: SW-620 colon
T-47D breast = tested on: T-47D breast
TK-10 renal = tested on: TK-10 renal
U251 CNS = tested on: U251 CNS
UACC-257 melanoma = tested on: UACC-257 melanoma
UACC-62 melanoma = tested on: UACC-62 melanoma
UO-31 renal = tested on: UO-31 renal
COLO 205 colon = tested on: COLO 205 colon
HCT-116 colon = tested on: HCT-116 colon
HCT-15 colon = tested on: HCT-15 colon
K-562 leukemia = tested on: K-562 leukemia
OVCAR-3 ovarian = tested on: OVCAR-3 ovarian
OVCAR-8 ovarian = tested on: OVCAR-8 ovarian
SK-MEL-2 melanoma = tested on: SK-MEL-2 melanoma

Compound: Cc1ccc(-c2csc(N/N=C/c3nc4ccccc4n3C3CC3)n2)cc1
- GI50 (786-0 renal): 4.12 µM
- TGI (786-0 renal): 16 µM
- GI50 (A498 renal): 14.4 µM
- TGI (A498 renal): 33.6 µM
- GI50 (A549 NSCLC): 5.55 µM
- TGI (A549 NSCLC): 26.9 µM
- GI50 (ACHN renal): 1.58 µM
- TGI (ACHN renal): 3.08 µM
- GI50 (BT-549 breast): 4.47 µM
- TGI (BT-549 breast): 17.6 µM
- GI50 (CAKI-1 renal): 1.52 µM
- TGI (CAKI-1 renal): 3.07 µM
- GI50 (CCRF-CEM leukemia): 2.15 µM
- TGI (CCRF-CEM leukemia): 5.39 µM
- GI50 (DU-145 prostate): 1.83 µM
- TGI (DU-145 prostate): 3.42 µM
- GI50 (EKVX NSCLC): 21 µM
- TGI (EKVX NSCLC): 55.9 µM
- GI50 (HCC-2998 colon): 16.2 µM
- TGI (HCC-2998 colon): 46.5 µM
- GI50 (HL-60(TB) leukemia): 1.86 µM
- TGI (HL-60(TB) leukemia): 4.38 µM
- GI50 (HOP-62 NSCLC): 3.67 µM
- TGI (HOP-62 NSCLC): 49.7 µM
- GI50 (HOP-92 NSCLC): 1.65 µM
- TGI (HOP-92 NSCLC): 3.13 µM
- GI50 (HS 578T breast): 11.7 µM
- TGI (HS 578T breast): 57 µM
- GI50 (HT29 colon): 1.84 µM
- TGI (HT29 colon): 3.48 µM
- GI50 (IGROV1 ovarian): 5.73 µM
- TGI (IGROV1 ovarian): 35.9 µM
- GI50 (KM12 colon): 16.3 µM
- TGI (KM12 colon): 59.8 µM
- GI50 (LOX IMVI melanoma): 4.61 µM
- TGI (LOX IMVI melanoma): 36.4 µM
- GI50 (M14 melanoma): 1.75 µM
- TGI (M14 melanoma): 3.43 µM
- GI50 (MALME-3M melanoma): 1.99 µM
- TGI (MALME-3M melanoma): 3.84 µM
- GI50 (MCF7 breast): 1.92 µM
- TGI (MCF7 breast): 4.39 µM
- GI50 (MDA-MB-231 breast): 10.6 µM
- TGI (MDA-MB-231 breast): 41.4 µM
- GI50 (MDA-MB-435): 10.5 µM
- TGI (MDA-MB-435): 23.6 µM
- GI50 (MOLT-4 leukemia): 2.18 µM
- TGI (MOLT-4 leukemia): 4.75 µM
- GI50 (NCI-H226 lung): 8.34 µM
- TGI (NCI-H226 lung): > 100 µM
- GI50 (NCI-H23 lung): 20 µM
- TGI (NCI-H23 lung): 61 µM
- GI50 (NCI-H460 lung): 7.72 µM
- TGI (NCI-H460 lung): 27.1 µM
- GI50 (NCI/ADR-RES ovarian): 13.6 µM
- TGI (NCI/ADR-RES ovarian): > 100 µM
- GI50 (OVCAR-4 ovarian): 1.74 µM
- TGI (OVCAR-4 ovarian): 3.33 µM
- GI50 (OVCAR-5 ovarian): 17.6 µM
- TGI (OVCAR-5 ovarian): 39.5 µM
- GI50 (PC-3 prostate): 12 µM
- TGI (PC-3 prostate): 25.7 µM
- GI50 (RPMI-8226 leukemia): 1.95 µM
- TGI (RPMI-8226 leukemia): 4.71 µM
- GI50 (RXF 393 renal): 1.95 µM
- TGI (RXF 393 renal): 4.46 µM
- GI50 (SF-268 CNS): 4.21 µM
- TGI (SF-268 CNS): 21.1 µM
- GI50 (SF-295 CNS): 45.5 µM
- TGI (SF-295 CNS): > 100 µM
- GI50 (SF-539 CNS): 12.2 µM
- TGI (SF-539 CNS): 27.5 µM
- GI50 (SK-MEL-28 melanoma): 1.82 µM
- TGI (SK-MEL-28 melanoma): 3.35 µM
- GI50 (SK-MEL-5 melanoma): 2.04 µM
- TGI (SK-MEL-5 melanoma): 11.4 µM
- GI50 (SK-OV-3 ovarian): 8.53 µM
- TGI (SK-OV-3 ovarian): > 100 µM
- GI50 (SN12C renal): 8.55 µM
- TGI (SN12C renal): 31.5 µM
- GI50 (SNB-19 CNS): 5.19 µM
- TGI (SNB-19 CNS): 79.4 µM
- GI50 (SNB-75 CNS): 1.86 µM
- TGI (SNB-75 CNS): 3.9 µM
- GI50 (SR leukemia): 2.02 µM
- TGI (SR leukemia): 5.63 µM
- GI50 (SW-620 colon): 1.62 µM
- TGI (SW-620 colon): 3.29 µM
- GI50 (T-47D breast): 2.14 µM
- TGI (T-47D breast): 5.27 µM
- GI50 (TK-10 renal): 1.68 µM
- TGI (TK-10 renal): 3.05 µM
- GI50 (U251 CNS): 2.72 µM
- TGI (U251 CNS): 8.33 µM
- GI50 (UACC-257 melanoma): 1.51 µM
- TGI (UACC-257 melanoma): 2.93 µM
- GI50 (UACC-62 melanoma): 16.5 µM
- TGI (UACC-62 melanoma): 31 µM
- GI50 (UO-31 renal): 1.6 µM
- TGI (UO-31 renal): 3.05 µM

Compound: C#C[C@]1(O)CC[C@H]2[C@@H]3CC=C4c5sc(Nc6cc(Cl)ccc6OC)nc5CC[C@]4(C)[C@H]3CC[C@@]21C
- GI50 (786-0 renal): 0.381 µM
- TGI (786-0 renal): 1.97 µM
- GI50 (A498 renal): 0.219 µM
- TGI (A498 renal): 1.05 µM
- GI50 (A549 NSCLC): 2.86 µM
- TGI (A549 NSCLC): > 100 µM
- GI50 (BT-549 breast): 0.797 µM
- TGI (BT-549 breast): 5.46 µM
- GI50 (CAKI-1 renal): 1.52 µM
- TGI (CAKI-1 renal): 4.15 µM
- GI50 (COLO 205 colon): 2.19 µM
- TGI (COLO 205 colon): 4.39 µM
- GI50 (EKVX NSCLC): 1.63 µM
- TGI (EKVX NSCLC): 6.39 µM
- GI50 (HCC-2998 colon): 1.75 µM
- TGI (HCC-2998 colon): 3.39 µM
- GI50 (HCT-116 colon): 1.13 µM
- TGI (HCT-116 colon): 2.56 µM
- GI50 (HCT-15 colon): 1.33 µM
- TGI (HCT-15 colon): 3.26 µM
- GI50 (HL-60(TB) leukemia): 0.84 µM
- TGI (HL-60(TB) leukemia): 3.96 µM
- GI50 (HOP-62 NSCLC): 2.56 µM
- TGI (HOP-62 NSCLC): > 100 µM
- GI50 (HOP-92 NSCLC): 2.47 µM
- TGI (HOP-92 NSCLC): 6.75 µM
- GI50 (HS 578T breast): 0.486 µM
- TGI (HS 578T breast): 5.87 µM
- GI50 (HT29 colon): 1.79 µM
- TGI (HT29 colon): 4.86 µM
- GI50 (IGROV1 ovarian): 1.79 µM
- TGI (IGROV1 ovarian): 5.64 µM
- GI50 (K-562 leukemia): 0.581 µM
- TGI (K-562 leukemia): 9.42 µM
- GI50 (KM12 colon): 1.97 µM
- TGI (KM12 colon): 4.35 µM
- GI50 (LOX IMVI melanoma): 1.38 µM
- TGI (LOX IMVI melanoma): 2.88 µM
- GI50 (M14 melanoma): 1.4 µM
- TGI (M14 melanoma): 4.93 µM
- GI50 (MALME-3M melanoma): 1.33 µM
- TGI (MALME-3M melanoma): 3.7 µM
- GI50 (MCF7 breast): 0.808 µM
- TGI (MCF7 breast): 2.35 µM
- GI50 (MDA-MB-231 breast): 1.96 µM
- TGI (MDA-MB-231 breast): 4.88 µM
- GI50 (MDA-MB-435): 1.89 µM
- TGI (MDA-MB-435): 5.41 µM
- GI50 (MOLT-4 leukemia): 0.454 µM
- TGI (MOLT-4 leukemia): 4.6 µM
- GI50 (NCI-H226 lung): 1.62 µM
- TGI (NCI-H226 lung): 3.51 µM
- GI50 (NCI-H23 lung): 1.81 µM
- TGI (NCI-H23 lung): > 100 µM
- GI50 (NCI/ADR-RES ovarian): 2.52 µM
- TGI (NCI/ADR-RES ovarian): 48.8 µM
- GI50 (OVCAR-3 ovarian): 1.64 µM
- TGI (OVCAR-3 ovarian): 3.56 µM
- GI50 (OVCAR-4 ovarian): 3.54 µM
- TGI (OVCAR-4 ovarian): > 100 µM
- GI50 (OVCAR-8 ovarian): 3.55 µM
- TGI (OVCAR-8 ovarian): > 100 µM
- GI50 (RPMI-8226 leukemia): 0.251 µM
- TGI (RPMI-8226 leukemia): 0.684 µM
- GI50 (RXF 393 renal): 0.178 µM
- TGI (RXF 393 renal): 0.503 µM
- GI50 (SF-268 CNS): 2.21 µM
- TGI (SF-268 CNS): > 100 µM
- GI50 (SF-295 CNS): 0.306 µM
- TGI (SF-295 CNS): 1.12 µM
- GI50 (SF-539 CNS): 0.359 µM
- TGI (SF-539 CNS): 1.46 µM
- GI50 (SK-MEL-2 melanoma): 1.3 µM
- TGI (SK-MEL-2 melanoma): 4.61 µM
- GI50 (SK-MEL-28 melanoma): 0.42 µM
- TGI (SK-MEL-28 melanoma): 1.66 µM
- GI50 (SK-MEL-5 melanoma): 1.93 µM
- TGI (SK-MEL-5 melanoma): 4.05 µM
- GI50 (SK-OV-3 ovarian): 4.27 µM
- TGI (SK-OV-3 ovarian): > 100 µM
- GI50 (SR leukemia): 0.578 µM
- TGI (SR leukemia): 4.51 µM
- GI50 (SW-620 colon): 1.67 µM
- TGI (SW-620 colon): 3.86 µM
- GI50 (T-47D breast): 2.41 µM
- TGI (T-47D breast): > 100 µM
- GI50 (UO-31 renal): 1.45 µM
- TGI (UO-31 renal): 3.04 µM
